Numbers after ± are expanded uncertainties.
Assays:
[1] = Crystal; DTA
[2] = Molar enthalpy of transition or fusion; details: Crystal; DSC

Normal melting temperature [1]: 195.30 ± 0.9 °C
Molar enthalpy of transition or fusion [2]: 6.43 ± 0.143 kcal/mol
SMILES: Cc1ccc2[nH]c3c(c2c1)CCCC3=O [1-keto-1,2,3,4-tetrahydro-6-methylcarbazole]

From the NIST ThermoML archive (doi:10.1021/je0600552)
